Source: patent US9023789B2, “Amylin analogs and pharmaceutical compositions thereof” (Novo Nordisk A/S, priority 2012, dated 2015)
Read-outs that look alike come from different tables or passages of the source. Numbered stars: 1 amine (or outer) side, 2 acyl side, 3 side chain; on linkers, the order of the positions; unused ones are H or OH. Bridge positions count the residues as written; N and C are the ends. Side chains are listed from the residue outwards. Peptide text beside a SMILES is read from it. * marks the point of attachment. C20 diacid = O=C(O)CCCCCCCCCCCCCCCCCCC(=O)*; γGlu = O=C(O)[C@H](CCC(=O)[*:2])N[*:1]

How the values were obtained:
Sprague Dawley (SD) rats = test: ASSAY (I) efficacy testing on appetite (food intake) using an ad libitum fed rat model; format: in vivo; conditions: rat
Method in brief: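 Individual food consumption was logged each hour up to 7 h and again at 24 h, occasionally 48 h, with Grubbs-test outliers removed. Each 200–250 g Sprague Dawley rat, free-feeding in its home cage under reversed lighting, received a single ip, po or sc dose of 0.01–3 mg/kg at lights-off, alongside a vehicle group.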

rat calcitonin receptor = target: T1, rat calcitonin receptor (Rattus norvegicus, UniProt P32214); test: ASSAY (VIII) binding to the rat calcitonin receptor; conditions: Table 7, read-out: rCTR bind IC50
T1 construct: expressed in transfected cells; host or cells: BHK tk'ts 13 (transient, FuGENE 6), membranes
T1 sequence (P32214 25-479 isoform P32214-2 limits assumed): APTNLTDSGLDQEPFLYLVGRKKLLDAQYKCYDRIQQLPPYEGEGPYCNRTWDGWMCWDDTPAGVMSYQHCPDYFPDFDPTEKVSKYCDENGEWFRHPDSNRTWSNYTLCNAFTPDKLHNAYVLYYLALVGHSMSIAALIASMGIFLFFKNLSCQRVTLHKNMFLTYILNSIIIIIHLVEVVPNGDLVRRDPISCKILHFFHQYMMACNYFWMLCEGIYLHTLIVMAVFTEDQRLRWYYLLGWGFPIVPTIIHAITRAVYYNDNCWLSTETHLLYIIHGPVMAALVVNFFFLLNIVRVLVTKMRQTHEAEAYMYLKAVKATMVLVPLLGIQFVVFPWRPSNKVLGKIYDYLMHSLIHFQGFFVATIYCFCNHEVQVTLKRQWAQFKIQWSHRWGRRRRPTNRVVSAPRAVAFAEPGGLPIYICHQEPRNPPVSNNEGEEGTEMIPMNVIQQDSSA
Method in brief: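 BHK tk′ts 13 cells, transient rat calcitonin receptor transfection; DMEM + 10% FBS; harvest ~48 h post-transfection; membrane prep.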

[1] = ASSAY (IV) determination of solubility; format: physicochemical
Method in brief: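 Solubility measured by UPLC of supernatant after centrifugation, following 18 h at room temperature. Peptide ([…] in water) was diluted 1:1 into 100 mM glycylglycine (pH 3.0, 4.0, 5.0) or bistrispropane (pH 6.0-8.0).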

[2] = bistrispropane buffer, pH 6.5, read-out: Solubility pH 6.5 Concentration
[3] = bistrispropane buffer, pH 7.5, read-out: Solubility pH 7.5 Concentration
[4] = bistrispropane buffer, pH 6.0, read-out: Solubility pH 6.0 Concentration
[5] = bistrispropane buffer, pH 7.0, read-out: Solubility pH 7.0 Concentration
[6] = bistrispropane buffer, pH 8.0, read-out: Solubility pH 8.0 Concentration
[7] = glycylglycine buffer, pH 3.0, read-out: Solubility pH 3.0 Concentration
[8] = glycylglycine buffer, pH 4.0, read-out: Solubility pH 4.0 Concentration
[9] = glycylglycine buffer, pH 5.0, read-out: Solubility pH 5.0 Concentration

| SMILES | Food intake reduction 0-24 h 3 nmol/kg (%) (Sprague Dawley (SD) rats; 3 nmol/kg, 0-24 h) | Food intake reduction 24-48 h 3 nmol/kg (%) (Sprague Dawley (SD) rats; 3 nmol/kg, 24-48 h) | Food intake reduction 0-24 h 30 nmol/kg (%) (Sprague Dawley (SD) rats; 0-24 h) | Food intake reduction 24-48 h 30 nmol/kg (%) (Sprague Dawley (SD) rats; 24-48 h) | IC50 (rat calcitonin receptor) [nM] | solubility at 18 h [1, 2] [µM] | solubility at 18 h [1, 3] [µM] | solubility at 18 h [1, 4] [µM] | solubility at 18 h [1, 5] [µM] | solubility at 18 h [1, 6] [µM] | solubility at 18 h [1, 7] [µM] | solubility at 18 h [1, 8] [µM] | solubility at 18 h [1, 9] [µM] |
| --- | --- | --- | --- | --- | --- | --- | --- | --- | --- | --- | --- | --- | --- |
| CC[C@H](C)[C@H](NC(=O)[C@H](C)NC(=O)CNC(=O)[C@H](Cc1ccccc1)NC(=O)[C@H](CC(N)=O)NC(=O)[C@@H]1CCCN1C(=O)[C@H](CO)NC(=O)[C@H](CO)NC(=O)[C@H](Cc1c[nH]cn1)NC(=O)[C@H](CCCNC(=N)N)NC(=O)[C@H](CC(C)C)NC(=O)[C@H](Cc1ccccc1)NC(=O)[C@H](CCC(=O)O)NC(=O)[C@H](C)NC(=O)[C@H](CC(C)C)NC(=O)[C@H](CCCNC(=N)N)NC(=O)[C@H](CCC(N)=O)NC(=O)[C@@H](NC(=O)[C@H](C)NC(=O)[C@@H]1CSSC[C@H](NC(=O)[C@@H](N)CCCCNC(=O)CC[C@H](NC(=O)CCCCCCCCCCCCCCCCCCC(=O)O)C(=O)O)C(=O)N[C@@H](CC(N)=O)C(=O)N[C@@H]([C@@H](C)O)C(=O)N[C@@H](C)C(=O)N[C@@H]([C@@H](C)O)C(=O)N1)[C@@H](C)O)C(=O)N1CCC[C@H]1C(=O)N[C@@H](CO)C(=O)N[C@@H](CO)C(=O)N[C@H](C(=O)N[C@@H](CC(N)=O)C(=O)N[C@H](C(=O)NCC(=O)N1CCC[C@H]1C(=O)N[C@@H](Cc1c[nH]cn1)C(=O)N[C@H](C(=O)N[C@@H](Cc1ccc(O)cc1)C(N)=O)[C@@H](C)O)C(C)C)[C@@H](C)O [Example 118] (H-K([γGlu-C20 diacid])CNTATCATQRLAEFLRHSSPNFGAIPSSTNVGPHTY-NH2; disulfide 2-7) | 43 | 1 | 77 | 30 | 5.43 | ≥ 200 | ≥ 200 | ≥ 200 | ≥ 200 | ≥ 200 | ≥ 200 | ≥ 200 | ≥ 200 |
| CC[C@H](C)[C@H](NC(=O)[C@H](C)NC(=O)CNC(=O)[C@H](Cc1ccccc1)NC(=O)[C@H](CC(N)=O)NC(=O)[C@@H]1CCCN1C(=O)[C@H](CO)NC(=O)[C@H](CO)NC(=O)[C@H](Cc1c[nH]cn1)NC(=O)[C@H](CCCNC(=N)N)NC(=O)[C@H](CC(C)C)NC(=O)[C@H](Cc1ccccc1)NC(=O)[C@H](CO)NC(=O)[C@H](C)NC(=O)[C@H](CC(C)C)NC(=O)[C@H](CCCNC(=N)N)NC(=O)[C@H](CCC(N)=O)NC(=O)[C@@H](NC(=O)[C@H](C)NC(=O)[C@@H]1CSSC[C@H](NC(=O)[C@@H](N)CCCCNC(=O)CC[C@H](NC(=O)CC[C@H](NC(=O)CCCCCCCCCCCCCCCCCCC(=O)O)C(=O)O)C(=O)O)C(=O)N[C@@H](CC(N)=O)C(=O)N[C@@H]([C@@H](C)O)C(=O)N[C@@H](C)C(=O)N[C@@H]([C@@H](C)O)C(=O)N1)[C@@H](C)O)C(=O)N1CCC[C@H]1C(=O)N[C@@H](CO)C(=O)N[C@@H](CO)C(=O)N[C@H](C(=O)N[C@@H](CC(N)=O)C(=O)N[C@H](C(=O)NCC(=O)N1CCC[C@H]1C(=O)N[C@@H](CCC(=O)O)C(=O)N[C@H](C(=O)N[C@@H](Cc1ccc(O)cc1)C(N)=O)[C@@H](C)O)C(C)C)[C@@H](C)O [Example 120] (H-K([γGlu-γGlu-C20 diacid])CNTATCATQRLASFLRHSSPNFGAIPSSTNVGPETY-NH2; disulfide 2-7 (inferred); N-terminus assumed) | – | – | 66 | 61 | 140 | ≥ 200 | ≥ 200 | ≥ 200 | ≥ 200 | ≥ 200 | ≥ 200 | ≥ 200 | ≥ 200 |
